Laboratory results published in patent US11773127B2, “Compounds and methods for treating bacterial infections” (Washington University, priority 2017, dated 2023).
Where two headings read alike, the source gives them in different places.

Target: T1, FmlHLD (Escherichia coli, UniProt P77588)
T1 construct: 6xHis (C); made in house; host or cells: E. coli C600, periplasm, pTRC99a
Test: biochemical
Type: binding, E. coli
Conditions: for PI100 (percent inhibition): galactoside at 100 μM, 100 µM; for inhibition at 10 µM: read-out: PI10 (percent inhibition), galactoside at 10 μM; for inhibition at 100 µM: read-out: PI100 (percent inhibition), galactoside at 100 μM
Description: Thereafter, wells were incubated with 200 μl blocking buffer (PBS+1% BSA) for 2 hours at 23° C., followed by incubation with 100 μl biotinylated FmlHLD diluted in blocking buffer to 20 μg/ml in the presence or absence of the tested compounds for 1 hr at 23° C. After washing 3× with PBS+0.05% TWEEN-20, 100 μl Streptavidin-HRP conjugate (BD Biosciences; 1:2000 dilution in blocking buffer) was added to each well for 1 hr at 23° C. After a final round of washing, plates were developed with 100 μl Tetramethylbenzidine (TMB, BD Biosciences) substrate, quenched within 1-2 min with 50 μl […], and absorbance measured at 450 nm.
Select top hit compounds and few low-scoring analogs from the virtual screening, as well as synthetic galactosides, were tested in the ELISA-based competition assay for their ability to inhibit binding of FmlHLD to ds-BSM. The ELISA assay was performed using the protocol described in Example 18. […] All compounds were tested at 100 μM; a subset was tested at 10 μM; and the strongest subset was additionally tested at 1 μM. […] Percent inhibition (PI) values are reported as the mean with standard error of the mean for galactosides tested at 100 μM (PI100), 10 μM (PI10), and 1 μM (PI1) in the ELISA-based competition assay. […] The “thio” designation indicates a sulfur linkage between the sugar and the aglycone group, the “phospho” designation indicates a phosphate group attached the C6-hydroxyl group on the sugar, and the “uro” designation indicates galacturonide as the sugar.
The ELISA assay was performed using the protocol described in Example 18. All compounds were tested at 1 μM and a subset was additionally tested at 100 nM. Average percent inhibition (PI) values are reported for compounds tested at 1 μM (PI1) and 100 nM (PI0.1).
Briefly, 1 μg bovine submaxillary mucin (Sigma) in 100 uL PBS were incubated with Immulon 4HBX 96-well plates overnight prior to treatment with 1 mU Arthrobacter ureafaciens sialidase for 1 hour at 37° C. to remove terminal sialic acid sugars. Wells were then blocked with 200 μL PBS+1% BSA for 2 hours at room temperature. Biotinylated FmlH^LD was diluted to 20 μg/mL in blocking buffer and incubated in the presence or absence of compounds serially diluted 2× down eight rows for 1 hour at room temperature. Wells were washed three times with PBS 0.05% TWEEN-20 then incubated with 100 μL of streptavidin-HRP conjugate (BD Biosciences; 1:2,000 dilution in blocking buffer) for one hour. After three additional PBS+0.05% TWEEN washes, plates were developed with 100 μL of tetramethylbenzidine (BD Biosciences) substrate and quenched with 50 μL of 1 M H2SO4. Total bound portion concentration was measured by the absorbance at 450 nm. IC50s were determined using the Graphpad Prism software.
The compounds synthesized herein were tested in the ELISA-based competition assay for their ability to inhibit binding of FmlHLD to ds-BSM. The ELISA assay was performed using the protocol described in Example 18. Compounds were tested at […], 1 μM, and 100 nM. as indicated on the table. […] ND means the corresponding value was not determined for this summary (but may be available elsewhere in the Examples).

[1] = IC50, inhibition of FmlHLD binding to ds-BSM
[2] = mean with standard error of the mean
[3] = read-out: PI1 (percent inhibition), galactoside at 1 μM, mean with standard error of the mean

T1 sequence (P77588 25-182): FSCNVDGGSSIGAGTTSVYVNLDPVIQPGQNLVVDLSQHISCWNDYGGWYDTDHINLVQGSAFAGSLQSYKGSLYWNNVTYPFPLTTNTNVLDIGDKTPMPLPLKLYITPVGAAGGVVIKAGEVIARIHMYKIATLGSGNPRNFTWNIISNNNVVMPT

Row | Structure (SMILES) | IC50 [1] | PI100 (percent inhibition) [2] | inhibition at 10 µM [2] | inhibition at 100 µM [2] | also measured
1 | CC(=O)N[C@H]1[C@H](Oc2ccccc2-c2cccc(OS(C)(=O)=O)c2)O[C@H](CO)[C@H](O)[C@@H]1O [AM2078, 2′-(((2S,3R,4R,5R,6R)-3-acetamido-4,5-dihydroxy-6-(hydroxymethyl)tetrahydro-2H-pyran-2-yl)oxy)-[1,1′-biphenyl]-3-yl methanesulfonate] |  |  |  |  | inhibitory potency against FmlH, in words (ELISA-based competition assay): equal or slightly reduced potency; IC50 (IC50 (μM), Table 5, Gal and GalNAc inhibition of FmlH): 0.89 µM; inhibition at 0.1 µM (read-out: % Inhibition at [μM] [0.1], compound at 0.1 μM (100 nM), inhibition of FmlHLD binding to ds-BSM): 2%; inhibition at 1 µM (read-out: % Inhibition at [μM] [1], compound at 1 μM, inhibition of FmlHLD binding to ds-BSM): 32.5%; inhibition at 0.1 µM (read-out: PI (0.1) (average percent inhibition), compound at 100 nM, Table 4): 2%; inhibition at 1 µM (read-out: PI(1) (average percent inhibition), compound at 1 μM, Table 4): 32.5%
2 | COc1cccc(O[C@@H]2O[C@H](CO)[C@H](O)[C@H](O)[C@H]2NC(C)=O)c1-c1cccc(NS(C)(=O)=O)c1 [AM2082] | 0.151 µM |  |  |  | 
3 | CC(=O)N[C@H]1[C@H](Oc2ccccc2-c2cccc(NC(=O)C(F)(F)F)c2)O[C@H](CO)[C@H](O)[C@@H]1O [AM2101] | 1.02 µM |  |  |  | 
4 | CC(=O)N[C@H]1[C@H](Oc2cccc(C#N)c2-c2cccc(NS(C)(=O)=O)c2)O[C@H](CO)[C@H](O)[C@@H]1O [AM2107] | 0.109 µM |  |  |  | 
5 | CC(=O)N[C@H]1[C@H](Oc2cccc(F)c2-c2cccc(NS(C)(=O)=O)c2)O[C@H](CO)[C@H](O)[C@@H]1O [AM2109] | 0.151 µM |  |  |  | 
6 | CC(=O)N[C@H]1[C@H](Oc2cccc(C)c2-c2cccc(NS(C)(=O)=O)c2)O[C@H](CO)[C@H](O)[C@@H]1O [AM2110] | 0.122 µM |  |  |  | 
7 | CC(=O)N[C@H]1[C@H](Oc2ccccc2-c2cccc(NS(=O)(=O)C(F)(F)F)c2)O[C@H](CO)[C@H](O)[C@@H]1O [AM2112] | 2.43 µM |  |  |  | 
8 | CC(=O)N[C@H]1[C@H](Oc2ccccc2-c2cc(NS(=O)(=O)C(F)(F)F)ccc2F)O[C@H](CO)[C@H](O)[C@@H]1O [AM2116] | 3.07 µM |  |  |  | 
9 | CC(=O)N[C@H]1[C@H](Oc2ccccc2-c2cc(C(=O)O)cc([N+](=O)[O-])c2)O[C@H](CO)[C@H](O)[C@@H]1O [AM2119] | 1.72 µM |  |  |  | 
10 | Cc1cccc(O[C@@H]2O[C@H](CO)[C@H](O)[C@H](O)[C@H]2NC(=O)C(F)(F)F)c1-c1cccc(NS(C)(=O)=O)c1 [AM2129] | 0.105 µM |  |  |  | 
11 | CC(=O)N[C@H]1[C@H](Oc2cccc(C(F)(F)F)c2-c2cccc(NS(C)(=O)=O)c2)O[C@H](CO)[C@H](O)[C@@H]1O [AM2134] | 0.085 µM |  |  |  | 
12 | CC(=O)N[C@H]1[C@H](Oc2cccc(C(=O)OCc3ccccc3)c2-c2cccc(NS(C)(=O)=O)c2)O[C@H](CO)[C@H](O)[C@@H]1O [AM2141] | 0.18 µM |  |  |  | 
13 | CC(=O)N[C@H]1[C@H](Oc2ccc3ccccc3c2-c2cccc(NS(C)(=O)=O)c2)O[C@H](CO)[C@H](O)[C@@H]1O [AM2144] | 0.18 µM |  |  |  | 
14 | CC(=O)N[C@H]1[C@H](Oc2cccc(C(=O)O)c2-c2cccc(NS(C)(=O)=O)c2)O[C@H](CO)[C@H](O)[C@@H]1O [AM2148] | 0.13 µM |  |  |  | 
15 | CC(=O)N[C@H]1[C@H](Oc2cccc(C)c2-c2cccc(NS(=O)(=O)C3CC3)c2)O[C@H](CO)[C@H](O)[C@@H]1O [AM2151] | 0.12 µM |  |  |  | 
16 | CC(=O)N[C@H]1[C@H](Oc2cccc(C)c2-c2cccc(NS(=O)(=O)N(C)C)c2)O[C@H](CO)[C@H](O)[C@@H]1O [AM2152] | 0.13 µM |  |  |  | 
17 | Cc1cccc(O[C@@H]2O[C@H](CO)[C@H](O)[C@H](O)[C@H]2NS(C)(=O)=O)c1-c1cccc(NS(C)(=O)=O)c1 [AM2186] | 3.5 µM |  |  |  | 

Row | Structure (SMILES) | IC50 [1] | PI100 (percent inhibition) [2] | inhibition at 10 µM [2] | inhibition at 100 µM [2] | also measured
18 | O=[N+]([O-])c1cccc(-c2ccccc2O[C@@H]2O[C@H](CO)[C@H](O)[C@H](O)[C@H]2O)c1 [AM3049] | 15 µM |  |  |  | 
19 | OC[C@H]1O[C@@H](Oc2ccccc2)[C@H](O)[C@@H](O)[C@H]1O [Compound 1β, phenyl β-galactoside] |  | 76.9 ± 0.4% | 15.5 ± 4.2% | 77% | 
20 | Cc1ccccc1O[C@H]1O[C@H](CO)[C@H](O)[C@H](O)[C@H]1O [Compound 2α, 2-Methylphenyl α/β-D-Galactopyranoside] |  |  |  | 30 ± 5.4% | 
21 | Cc1ccccc1O[C@@H]1O[C@H](CO)[C@H](O)[C@H](O)[C@H]1O [Compound 2β, 2-Methylphenyl α/β-D-Galactopyranoside] |  | 87.3 ± 3.7% | 28.2 ± 1.8% | 87% | inhibition at 1 µM [3]: 1.8 ± 5.7%
22 | N#Cc1ccccc1O[C@H]1O[C@H](CO)[C@H](O)[C@H](O)[C@H]1O [Compound 3α, 2-cyanophenyl α/β-D-galactopyranoside] |  |  |  | 17.8 ± 6.3% | 
23 | N#Cc1ccccc1O[C@@H]1O[C@H](CO)[C@H](O)[C@H](O)[C@H]1O [Compound 3β, 2-cyanophenyl α/β-D-galactopyranoside] |  | 94.5 ± 0.3% | 30.4 ± 1.8% | 95% | inhibition at 1 µM [3]: 12.1 ± 6.3%
24 | OC[C@H]1O[C@@H](Oc2ccccc2Cl)[C@H](O)[C@@H](O)[C@H]1O [Compound 6β, 2-chlorophenyl β-D-galactopyranoside] |  | 90.5 ± 0.6% | 20.7 ± 5.5% | 90% | inhibition at 1 µM [3]: 8 ± 4%
25 | COc1cc(OC)cc(O[C@@H]2O[C@H](CO)[C@H](O)[C@H](O)[C@H]2O)c1 [Compound 7β, 3,5-dimethoxyphenyl β-D-galactopyranoside] |  | 76.4 ± 2.4% | 11.7 ± 2.7% | 76% | 
26 | Cc1ccc(O[C@@H]2O[C@H](CO)[C@H](O)[C@H](O)[C@H]2O)cc1 [Compound 8β, 4-methylphenyl β-D-galactopyranoside] |  | 85.8 ± 0.7% | 16.5 ± 3.3% | 86% | inhibition at 1 µM [3]: 4.6 ± 7.9%
27 | N#Cc1ccc(O[C@@H]2O[C@H](CO)[C@H](O)[C@H](O)[C@H]2O)cc1 [Compound 9β, 4-cyanophenyl β-D-galactopyranoside] |  | 85.7 ± 1.6% | 19.2 ± 4.8% | 86% | inhibition at 1 µM [3]: 9.5 ± 3.7%
28 | Nc1ccc(O[C@@H]2O[C@H](CO)[C@H](O)[C@H](O)[C@H]2O)cc1 [Compound 10β] |  | 65.1 ± 1.4% | 9.8 ± 3.9% | 65% | 
29 | Cc1cc(=O)oc2cc(O[C@@H]3O[C@H](CO)[C@H](O)[C@H](O)[C@H]3O)ccc12 [Compound 12β] |  | 85.3 ± 0.7% | 19.7 ± 4.2% | 85% | inhibition at 1 µM [3]: 8.7 ± 3.1%
30 | Cc1cc(=O)oc2c(F)c(O[C@@H]3O[C@H](CO)[C@H](O)[C@H](O)[C@H]3O)c(F)cc12 [Compound 13β] |  | 49.7 ± 4.5% | 0.8 ± 3.1% | 50% | 
31 | Cc1c(C)c2ccc(O[C@@H]3O[C@H](CO)[C@H](O)[C@H](O)[C@H]3O)cc2oc1=O [Compound 14β] |  | 89.2 ± 0.4% | 19.8 ± 3.8% | 89% | inhibition at 1 µM [3]: 10.2 ± 4.3%
32 | O=c1ccc2nc3ccc(O[C@@H]4O[C@H](CO)[C@H](O)[C@H](O)[C@H]4O)cc3oc-2c1 [Compound 15β, Resorufin galactoside] |  | 80.4 ± 6.6% | 24 ± 3.2% | 80% | 
33 | OC[C@H]1O[C@@H](Oc2c[nH]c3ccccc23)[C@H](O)[C@@H](O)[C@H]1O [Compound 16β] |  | 21.7 ± 2.4% |  | 22% | 
34 | OC[C@H]1O[C@@H](Oc2c[nH]c3cc(Cl)ccc23)[C@H](O)[C@@H](O)[C@H]1O [Compound 17β] |  | 41.2 ± 3.4% |  | 41% | 
